Tests used:
[1] = Antagonist activity at human CXCR4 receptor expressed in CCRF-CEM cells assessed as inhibition of CXCL12-induced calcium release by calcium flux assay; assay type: cell-based
[2] = Metabolic stability in mouse liver microsomes assessed compound remaining measured after 10 mins in presence of NADPH; assay type: ADME, Microsome; settings: read-out: Stability
[3] = Permeability of compound at pH 5.5 incubated for 4 hrs by PAMPA assay; assay type: ADME; settings: read-out: permeability
[4] = system: Human immunodeficiency virus 1; assay: Antiviral activity against HIV-1 Z1800M E4.02 (R5) pseudovirus infected in human TZM-blcells assessed as reduction in viral infectivity measured after 48 hrs of postinfection by luminescence assay; assay type: functional, organism-based; settings: Human immunodeficiency virus 1, Z1800M E4.02 (R5), TZM-bl
[5] = target: T1, Alpha-2A adrenergic receptor (Homo sapiens, UniProt P08913); assay: Inhibition of alpha 2A adrenergic receptor (unknown origin)
T1 sequence (P08913 whole entry): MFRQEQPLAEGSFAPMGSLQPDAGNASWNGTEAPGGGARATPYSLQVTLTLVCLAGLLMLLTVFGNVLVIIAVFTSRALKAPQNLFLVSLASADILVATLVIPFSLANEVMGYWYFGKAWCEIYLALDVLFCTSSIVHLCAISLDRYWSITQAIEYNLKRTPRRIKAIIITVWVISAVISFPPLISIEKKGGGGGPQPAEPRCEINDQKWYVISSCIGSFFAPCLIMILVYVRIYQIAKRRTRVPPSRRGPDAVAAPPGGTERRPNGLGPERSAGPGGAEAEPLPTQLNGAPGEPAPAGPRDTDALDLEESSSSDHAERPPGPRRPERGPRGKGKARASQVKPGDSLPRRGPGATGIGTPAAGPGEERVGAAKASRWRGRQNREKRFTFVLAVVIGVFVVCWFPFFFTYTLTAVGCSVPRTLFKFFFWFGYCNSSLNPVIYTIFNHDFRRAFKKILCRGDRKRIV

Mu-type opioid receptor = Mu-type opioid receptor (Homo sapiens, UniProt P35372); assay: Inhibition of mu opioid receptor (unknown origin)
D(2) dopamine receptor = D(2) dopamine receptor (Homo sapiens, UniProt P14416); assay: Inhibition of dopamine D2 receptor (unknown origin)
[6] = target: T2, Muscarinic acetylcholine receptor M2 (Homo sapiens, UniProt P08172); assay: Inhibition of M2 mAChR receptor (unknown origin)
T2 sequence (P08172 whole entry): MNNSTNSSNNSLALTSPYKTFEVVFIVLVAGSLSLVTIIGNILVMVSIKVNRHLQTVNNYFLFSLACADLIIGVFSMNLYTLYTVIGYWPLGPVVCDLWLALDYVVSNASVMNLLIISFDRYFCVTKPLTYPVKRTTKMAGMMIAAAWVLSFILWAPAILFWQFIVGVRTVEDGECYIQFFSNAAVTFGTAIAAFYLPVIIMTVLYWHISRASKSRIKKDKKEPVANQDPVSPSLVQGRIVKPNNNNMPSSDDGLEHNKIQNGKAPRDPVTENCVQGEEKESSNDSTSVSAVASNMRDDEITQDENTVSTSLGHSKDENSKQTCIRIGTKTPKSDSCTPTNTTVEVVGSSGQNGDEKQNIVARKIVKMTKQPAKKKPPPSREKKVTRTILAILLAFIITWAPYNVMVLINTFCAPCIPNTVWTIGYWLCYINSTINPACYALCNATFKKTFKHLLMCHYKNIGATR

[7] = target: Neuronal acetylcholine receptor subunit alpha-7 (Homo sapiens, UniProt P36544); assay: Inhibition of alpha7 nicotinic acetylcholine receptor (unknown origin)
[8] = Half life in mouse at 3 mg/kg, iv measured after 8 hrs by LC-MS/MS analysis; assay type: ADME, organism-based; settings: in vivo
[9] = Cmax in mouse at 10 mg/kg, po measured after 8 hrs by LC-MS/MS analysis; assay type: ADME, organism-based; parameters: route oral, time 8 hrs, dose 10 mg/kg; settings: in vivo
[10] = Drug concentration in mouse plasma at 3 mg/kg, po measured at 12 hrs by LC-MS/MS analysis; assay type: ADME, organism-based
[11] = Drug concentration in mouse plasma at 30 mg/kg, po measured at 12 hrs by LC-MS analysis; assay type: ADME, organism-based
[12] = AUC(0 to 8 h) in mouse plasma at 3 mg/kg, iv measured at 24 hrs by LC-MS/MS analysis; assay type: ADME, organism-based; parameters: route intravenous, time 24 hrs, dose 3 mg/kg; settings: in vivo
[13] = AUC(0 to 8 h)in mouse plasma at 3 mg/kg, po measured at 24 hrs by LC-MS/MS analysis; assay type: ADME, organism-based; parameters: route oral, dose 3 mg/kg, time 24 hrs; settings: in vivo
Cytochrome P450 3A4 = Cytochrome P450 3A4 (Homo sapiens, UniProt P08684); assay: Inhibition of CYP3A4 (unknown origin); assay type: ADME
Cytochrome P450 2C8 = Cytochrome P450 2C8 (Homo sapiens, UniProt P10632); assay: Inhibition of CYP2C8 (unknown origin); assay type: ADME
[14] = Therapeutic index, ratio of TC50 for human TZM-bl cells to IC50 for antiviral activity against HIV-1 NL4-3 (X4) pseudovirus infected in human TZM-bl cells assessed as reduction in viral infectivity; assay type: toxicity, cell-based
Homo sapiens [15] = species on record: Homo sapiens; assay: Selectivity index, ratio of IC50 for antagonist activity at mAChR (unknown origin) to IC50 for antagonist activity at human CXCR4 receptor
[16] = target: C-X-C chemokine receptor type 2 (Homo sapiens) (UniProt P25025); assay: Inhibition of human CXCR2 at 10 uM relative to control
Homo sapiens [17] = species on record: Homo sapiens; assay: Selectivity index, ratio of IC50 for inhibition of dopamine D2 receptor (unknown origin) to IC50 for antagonist activity at human CXCR4 receptor expressed in CCRF-CEM cells; assay type: cell-based
Homo sapiens [18] = species on record: Homo sapiens; assay: Selectivity index, ratio of IC50 for inhibition of M2 mAChR receptor (unknown origin) to IC50 for antagonist activity at human CXCR4 receptor expressed in CCRF-CEM cells; assay type: cell-based
Homo sapiens [19] = species on record: Homo sapiens; assay: Selectivity index, ratio of IC50 for inhibition of alpha7 nicotinic acetylcholine receptor (unknown origin) to IC50 for antagonist activity at human CXCR4 receptor expressed in CCRF-CEM cells; assay type: cell-based
Homo sapiens [20] = species on record: Homo sapiens; assay: Selectivity index, ratio of IC50 for inhibition of hERG receptor (unknown origin) to IC50 for antagonist activity at human CXCR4 receptor expressed in CCRF-CEM cells; assay type: cell-based
Homo sapiens [21] = species on record: Homo sapiens; assay: Selectivity index, ratio of IC50 for inhibition of recombinant human CYP2D6 to IC50 for antagonist activity at human CXCR4 receptor expressed in CCRF-CEM cells; assay type: cell-based
Homo sapiens [22] = species on record: Homo sapiens; assay: Selectivity index, ratio of IC50 for inhibition of recombinant human CYP3A4 to IC50 for antagonist activity at human CXCR4 receptor expressed in CCRF-CEM cells; assay type: cell-based
Homo sapiens [23] = species on record: Homo sapiens; assay: Selectivity index, ratio of IC50 for inhibition of recombinant human CYP2C19 (unknown origin) to IC50 for antagonist activity at human CXCR4 receptor expressed in CCRF-CEM cells; assay type: cell-based
Homo sapiens [24] = species on record: Homo sapiens; assay: Selectivity index, ratio of IC50 for inhibition of recombinant human CYP2C8 to IC50 for antagonist activity at human CXCR4 receptor expressed in CCRF-CEM cells; assay type: cell-based

Chain of Mu-type opioid receptor (P35372 whole entry): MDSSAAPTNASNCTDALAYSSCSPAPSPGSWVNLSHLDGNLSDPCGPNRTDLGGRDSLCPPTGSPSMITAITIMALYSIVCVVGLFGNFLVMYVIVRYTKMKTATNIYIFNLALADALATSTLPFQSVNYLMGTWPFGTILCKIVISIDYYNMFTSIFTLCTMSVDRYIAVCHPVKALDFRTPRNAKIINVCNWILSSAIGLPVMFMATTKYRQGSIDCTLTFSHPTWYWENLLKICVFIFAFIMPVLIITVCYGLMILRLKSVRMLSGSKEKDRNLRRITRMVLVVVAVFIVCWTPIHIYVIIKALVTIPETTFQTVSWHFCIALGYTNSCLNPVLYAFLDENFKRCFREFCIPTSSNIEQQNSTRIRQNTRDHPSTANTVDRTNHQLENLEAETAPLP
Chain of Cytochrome P450 3A4 (P08684 whole entry): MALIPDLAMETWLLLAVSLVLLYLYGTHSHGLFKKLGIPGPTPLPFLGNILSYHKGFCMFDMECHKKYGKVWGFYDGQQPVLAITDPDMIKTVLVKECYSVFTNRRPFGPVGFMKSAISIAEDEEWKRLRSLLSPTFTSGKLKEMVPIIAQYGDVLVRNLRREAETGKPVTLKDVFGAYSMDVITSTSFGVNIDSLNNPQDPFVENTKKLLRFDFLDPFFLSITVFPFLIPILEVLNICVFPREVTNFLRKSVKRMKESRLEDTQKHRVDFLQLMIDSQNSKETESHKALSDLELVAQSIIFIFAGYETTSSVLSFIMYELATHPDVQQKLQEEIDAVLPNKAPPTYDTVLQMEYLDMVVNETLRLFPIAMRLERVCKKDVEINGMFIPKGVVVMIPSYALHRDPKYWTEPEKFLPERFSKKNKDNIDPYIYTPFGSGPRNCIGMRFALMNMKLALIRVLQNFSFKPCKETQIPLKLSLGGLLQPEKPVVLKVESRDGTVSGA
Chain of Cytochrome P450 2C8 (P10632 whole entry): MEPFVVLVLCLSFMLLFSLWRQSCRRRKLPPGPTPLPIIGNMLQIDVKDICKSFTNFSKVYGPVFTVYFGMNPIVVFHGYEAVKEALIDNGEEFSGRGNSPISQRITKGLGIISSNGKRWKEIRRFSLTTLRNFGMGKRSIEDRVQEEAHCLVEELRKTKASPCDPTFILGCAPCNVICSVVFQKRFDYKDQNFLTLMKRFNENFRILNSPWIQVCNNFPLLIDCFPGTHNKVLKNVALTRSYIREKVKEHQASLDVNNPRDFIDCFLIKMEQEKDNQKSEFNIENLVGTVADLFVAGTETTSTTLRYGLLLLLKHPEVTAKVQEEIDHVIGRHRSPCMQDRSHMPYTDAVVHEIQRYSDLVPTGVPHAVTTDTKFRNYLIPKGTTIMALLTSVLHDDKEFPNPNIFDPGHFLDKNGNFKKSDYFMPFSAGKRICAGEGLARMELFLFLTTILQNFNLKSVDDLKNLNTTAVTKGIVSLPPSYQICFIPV
Chain of Neuronal acetylcholine receptor subunit alpha-7 (P36544 whole entry): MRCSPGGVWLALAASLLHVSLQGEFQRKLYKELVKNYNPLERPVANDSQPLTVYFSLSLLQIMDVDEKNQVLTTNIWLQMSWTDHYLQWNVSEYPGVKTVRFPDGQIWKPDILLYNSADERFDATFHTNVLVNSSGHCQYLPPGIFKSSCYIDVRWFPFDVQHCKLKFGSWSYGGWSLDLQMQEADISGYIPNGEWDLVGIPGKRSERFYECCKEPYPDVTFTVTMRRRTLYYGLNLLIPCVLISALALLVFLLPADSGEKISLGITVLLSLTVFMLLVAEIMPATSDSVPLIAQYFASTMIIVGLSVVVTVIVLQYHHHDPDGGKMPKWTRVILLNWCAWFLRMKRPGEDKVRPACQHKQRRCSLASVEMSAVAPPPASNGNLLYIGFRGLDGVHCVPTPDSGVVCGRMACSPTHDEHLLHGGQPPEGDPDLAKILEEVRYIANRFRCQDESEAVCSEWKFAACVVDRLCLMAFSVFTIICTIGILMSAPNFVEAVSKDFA
Chain of C-X-C chemokine receptor type 2 (Homo sapiens) (P25025 whole entry): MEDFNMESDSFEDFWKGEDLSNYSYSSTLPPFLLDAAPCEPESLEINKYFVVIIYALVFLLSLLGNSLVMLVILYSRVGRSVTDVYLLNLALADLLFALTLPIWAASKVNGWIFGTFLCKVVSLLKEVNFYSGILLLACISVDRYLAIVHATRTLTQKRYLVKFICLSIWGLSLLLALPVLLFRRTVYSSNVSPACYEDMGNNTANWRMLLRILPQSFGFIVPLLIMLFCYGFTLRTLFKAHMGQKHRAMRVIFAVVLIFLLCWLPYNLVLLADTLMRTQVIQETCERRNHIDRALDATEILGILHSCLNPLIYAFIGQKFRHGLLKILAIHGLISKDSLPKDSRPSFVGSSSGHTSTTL
Chain of D(2) dopamine receptor (P14416 whole entry): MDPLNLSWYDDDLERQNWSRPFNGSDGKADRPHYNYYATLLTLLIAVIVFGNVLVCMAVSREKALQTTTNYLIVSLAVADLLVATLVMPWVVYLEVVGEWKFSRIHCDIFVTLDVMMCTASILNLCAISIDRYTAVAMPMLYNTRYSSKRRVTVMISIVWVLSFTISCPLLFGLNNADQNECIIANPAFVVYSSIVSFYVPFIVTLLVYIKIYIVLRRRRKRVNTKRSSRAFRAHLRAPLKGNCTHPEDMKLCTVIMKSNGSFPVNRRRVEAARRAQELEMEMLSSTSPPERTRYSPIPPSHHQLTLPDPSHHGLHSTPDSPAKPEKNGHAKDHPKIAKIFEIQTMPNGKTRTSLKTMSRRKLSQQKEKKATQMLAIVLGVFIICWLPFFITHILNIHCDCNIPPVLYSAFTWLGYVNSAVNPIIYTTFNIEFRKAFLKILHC

SMILES: CN(CCCCN(C[C@H]1Cc2ncccc2CN1)[C@H]1CCCc2cccnc21)C1CCC(F)(F)CC1
- IC50 [1]: 0.024 µM
- remaining at 10 min [2]: 35%
- Papp at 4 h [3]: 1.5 ×10⁻⁶ cm/s
- IC50 [4]: > 10 µM
- IC50 [5]: 0.81 µM
- IC50 (Mu-type opioid receptor): > 30 µM
- IC50 (D(2) dopamine receptor): > 30 µM
- IC50 [6]: > 30 µM
- IC50 [7]: > 30 µM
- half-life [8]: 5.89 h
- Cmax [9]: 54.8 ng/mL
- concentration at 12 h [10]: 1.5 ng/mL
- concentration at 12 h [11]: 34.8 ng/mL
- AUC [12]: 265 h/ng/mL
- AUC [13]: 34.3 h/ng/mL
- IC50 (Cytochrome P450 3A4): > 20 µM
- IC50 (Cytochrome P450 2C8): > 20 µM
- selectivity ratio [14]: > 1000
- Selectivity Index (Homo sapiens [15]): > 710
- inhibition [16]: < 5%
- Selectivity Index (Homo sapiens [17]): > 1000
- Selectivity Index (Homo sapiens [18]): > 1000
- Selectivity Index (Homo sapiens [19]): > 1000
- Selectivity Index (Homo sapiens [20]): > 1000
- Selectivity Index (Homo sapiens [21]): 540
- Selectivity Index (Homo sapiens [22]): > 710
- Selectivity Index (Homo sapiens [23]): > 710
- Selectivity Index (Homo sapiens [24]): > 710

Reference: ChEMBL document CHEMBL5046278, “Synthesis and Evaluation of Novel Tetrahydronaphthyridine CXCR4 Antagonists with Improved Drug-like Profiles” (J Med Chem, 2022)
